Results reported in patent US20170253601A1, “Substituted Pyrrolidine Compounds” (EPIZYME, INC., priority 2014, published 2017).

These molecules were tested against T1, SMYD2 (Homo sapiens, UniProt Q9NRG4) (assay: SMYD2 Biochemical Assay (3H-SAM, biotinylated peptide substrate, Flashplate)). Details: IC50 values are an average of n = 1 to n = 50; read-out: SMYD2 Biochem IC50 (μM)*.
T1 construct: Full length SMYD2 (NP 064582.2) was cloned; His6 (N, cleaved yes); FLAG (N); made in house; host or cells: Sf9 insect cells
How it was run: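 Full-length His/FLAG-tagged SMYD2 expressed in Sf9 cells with tag cleaved, 1.5 nM, pre-incubated 30 min at room temperature with compound, then 10 nM 3H-SAM and 60 nM biotinylated peptide added. Buffer 20 mM Bicine pH 7.6, 1 mM TCEP, 0.005% BSG, 0.002% Tween20, 2% DMSO. Stopped with 600 uM cold SAM; 3H-peptide captured on streptavidin Flashplate; IC50 by curve fit.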

T1 sequence (Q9NRG4 whole entry): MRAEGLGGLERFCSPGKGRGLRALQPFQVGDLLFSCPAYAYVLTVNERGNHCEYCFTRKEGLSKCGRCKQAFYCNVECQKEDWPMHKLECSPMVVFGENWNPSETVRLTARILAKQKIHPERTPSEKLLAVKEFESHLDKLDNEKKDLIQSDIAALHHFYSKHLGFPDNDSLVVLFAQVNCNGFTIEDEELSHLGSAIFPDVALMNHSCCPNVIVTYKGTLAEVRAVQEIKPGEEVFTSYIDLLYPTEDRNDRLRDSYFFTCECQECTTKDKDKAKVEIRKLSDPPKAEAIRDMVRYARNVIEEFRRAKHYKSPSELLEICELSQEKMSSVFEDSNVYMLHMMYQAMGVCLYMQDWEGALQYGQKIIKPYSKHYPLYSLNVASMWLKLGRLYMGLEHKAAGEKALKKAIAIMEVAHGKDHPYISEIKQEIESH

| SMILES | IC50 [µM] |
| --- | --- |
| C[C@H]1CN(Cc2ccnc3ccccc23)C[C@H]1NC(=O)c1cc(C2CC2)on1 (racemic) [compound 197, (±)-cis-5-cyclopropyl-N-[4-methyl-1-(quinolin-4-ylmethyl)pyrrolidin-3-yl]-1,2-oxazole-3-carboxamide] | > 50 |
| C[C@H]1CN(Cc2ccc(-c3cc(Cl)ccc3Cl)o2)C[C@H]1NC(=O)c1cc(C2CC2)on1 (racemic) [compound 198, (±)-cis-5-cyclopropyl-N-(1-{[5-(2,5-dichloro-phenyl)furan-2-yl]methyl}-4-methyl-pyrrolidin-3-yl)-1,2-oxazole-3-carboxamide] | > 50 |
| CC[C@H]1CN(C(C)C)C[C@@H]1NC(=O)c1cc(C2CC2)on1 (racemic) [compound 199, (±)-trans-5-cyclopropyl-N-[4-ethyl-1-(propan-2-yl)pyrrolidin-3-yl]-1,2-oxazole-3-carboxamide] | 25.7 |
| CC(C)N1C[C@@H](C)[C@H](NC(=O)c2cc(C(C)(C)C)on2)C1 (racemic) [compound 200, (±)-trans-5-tert-butyl-N-[4-methyl-1-(propan-2-yl)pyrrolidin-3-yl]-1,2-oxazole-3-carboxamide] | > 50 |
| CC(C)N1C[C@H](C)[C@H](NC(=O)c2cc(C(C)(C)C)on2)C1 (racemic) [compound 201, (±)-cis-5-tert-butyl-N-[4-methyl-1-(propan-2-yl)pyrrolidin-3-yl]-1,2-oxazole-3-carboxamide] | > 50 |
| C[C@H]1CN(CC2CCC2)C[C@H]1NC(=O)c1cc(C2CC2)on1 (racemic) [compound 202, (±)-cis-N-[1-(cyclobutyl-methyl)-4-methyl-pyrrolidin-3-yl]-5-cyclopropyl-1,2-oxazole-3-carboxamide] | 1.63 |
| C[C@@H]1CN(Cc2c[nH]c3cc(Cl)ccc23)C[C@H]1NC(=O)c1cc(C2CC2)on1 (racemic) [compound 203, (±)-trans-N-[1-[(6-chloro-1H-indol-3-yl)methyl]-4-methyl-pyrrolidin-3-yl]-5-cyclopropyl-1,2-oxazole-3-carboxamide] | 48.3 |
| C[C@@H]1CN(Cc2ccc3ncccc3c2)C[C@H]1NC(=O)c1cc(C2CC2)on1 (racemic) [compound 204, (±)-trans-5-cyclopropyl-N-[4-methyl-1-(quinolin-6-ylmethyl)pyrrolidin-3-yl]-1,2-oxazole-3-carboxamide] | > 50 |
| C[C@H]1CN(CC2CCN(C(=O)OC(C)(C)C)CC2)C[C@H]1NC(=O)c1cc(C2CC2)on1 (racemic) [compound 205, (±)-cis-tert-butyl 4-{[3-(5-cyclopropyl-1,2-oxazole-3-amido)-4-methylpyrrolidin-1-yl]methyl}piperidine-1-carboxylate] | 7.69 |
| C[C@H]1CN(Cc2ccc(Cl)cc2)C[C@H]1NC(=O)c1cc(C2CC2)on1 (racemic) [compound 210, (±)-cis-N-[1-[(4-chloro-phenyl)methyl]-4-methylpyrrolidin-3-yl]-5-cyclopropyl-1,2-oxazole-3-carboxamide] | 4.32 |
| C[C@H]1CN(Cc2cnc3ncccn23)C[C@H]1NC(=O)c1cc(C2CC2)on1 (racemic) [compound 211, (±)-cis-5-cyclopropyl-N-[1-{imidazo[1,2-a]pyrimidin-3-ylmethyl}-4-methylpyrrolidin-3-yl]-1,2-oxazole-3-carboxamide] | > 50 |
| COc1ccc(CN2C[C@H](C)[C@H](NC(=O)c3cc(C4CC4)on3)C2)c(OC)c1 (racemic) [compound 212, (±)-cis-5-cyclopropyl-N-[1-[(2,4-dimethoxy-phenyl)methyl]-4-methylpyrrolidin-3-yl]-1,2-oxazole-3-carboxamide] | 5.23 |
| CC(C)CCN1C[C@H](C)[C@H](NC(=O)c2cc(C3CC3)on2)C1 (racemic) [compound 213, (±)-cis-5-cyclopropyl-N-[4-methyl-1-(3-methylbutyl)pyrrolidin-3-yl]-1,2-oxazole-3-carboxamide] | 1.62 |
| Cc1ccc2[nH]cc(CN3C[C@H](C)[C@H](NC(=O)c4cc(C5CC5)on4)C3)c2c1 (racemic) [compound 214, (±)-cis-5-cyclopropyl-N-[4-methyl-1-[(5-methyl-1H-indol-3-yl)methyl]pyrrolidin-3-yl]-1,2-oxazole-3-carboxamide] | 29.5 |

More lines, now with the values ahead:

| IC50 [µM] | SMILES |
| --- | --- |
| > 50 | C[C@@H]1CN(CC(F)F)C[C@H]1NC(=O)c1cc(C2CC2)on1 (racemic) [compound 215, (±)-trans-5-cyclopropyl-N-[1-(2,2-difluoro-ethyl)-4-methylpyrrolidin-3-yl]-1,2-oxazole-3-carboxamide] |
| > 50 | C[C@H]1CN(CC(F)F)C[C@H]1NC(=O)c1cc(C2CC2)on1 (racemic) [compound 216, (±)-cis-5-cyclopropyl-N-[1-(2,2-difluoroethyl)-4-methylpyrrolidin-3-yl]-1,2-oxazole-3-carboxamide] |
| 22.3 | CC(C)N1C[C@H](C)[C@H](NC(=O)c2cc(C3(C)CC3)on2)C1 (racemic) [compound 217, (±)-cis-N-[4-methyl-1-(propan-2-yl)pyrrolidin-3-yl]-5-(1-methyl-cyclopropyl)-1,2-oxazole-3-carboxamide] |
| 37.4 | CC(C)[C@@H]1CN(C)C[C@@H]1NC(=O)c1cc(C2CC2)on1 (racemic) [compound 218, (±)-cis-5-cyclopropyl-N-[1-methyl-4-(propan-2-yl)pyrrolidin-3-yl]-1,2-oxazole-3-carboxamide] |
| > 50 | CC(C)[C@H]1CN(C(C)C)C[C@H]1NC(=O)c1cc(C2CC2)on1 (racemic) [compound 219, (±)-cis-N-[1,4-bis(propan-2-yl)pyrrolidin-3-yl]-5-cyclopropyl-1,2-oxazole-3-carboxamide] |
| > 50 | COC(=O)CN1C[C@@H](C)[C@H](NC(=O)c2cc(C3CC3)on2)C1 (racemic) [compound 220, (±)-trans-methyl 2-[3-(5-cyclopropyl-1,2-oxazole-3-amido)-4-methylpyrrolidin-1-yl]acetate] |
| > 50 | COC(=O)CN1C[C@H](C)[C@H](NC(=O)c2cc(C3CC3)on2)C1 (racemic) [compound 221, (±)-cis-methyl 2-[3-(5-cyclopropyl-1,2-oxazole-3-amido)-4-methylpyrrolidin-1-yl]acetate] |
| 41.6 | C[C@H]1CN(Cc2ccc3nonc3c2)C[C@H]1NC(=O)c1cc(C2CC2)on1 (racemic) [compound 222, (±)-cis-N-[1-(2,1,3-benzoxadiazol-5-ylmethyl)-4-methyl-pyrrolidin-3-yl]-5-cyclopropyl-1,2-oxazole-3-carboxamide] |
| 4.96 | COc1cccc(CN2C[C@H](C)[C@H](NC(=O)c3cc(C4CC4)on3)C2)c1 (racemic) [compound 223, (±)-cis-5-cyclopropyl-N-[1-[(3-methoxy-phenyl)methyl]-4-methylpyrrolidin-3-yl]-1,2-oxazole-3-carboxamide] |
| > 50 | CC(C)c1cc(C(=O)N[C@H]2C[C@@H](CNC(=O)C3CCCCC3)N(C3CC3)C2)no1 (racemic) [compound 224, (±)-cis-N-[5-[(cyclohexyl-formamido)methyl]-1-cyclopropylpyrrolidin-3-yl]-5-(propan-2-yl)-1,2-oxazole-3-carboxamide] |
| > 50 | C[C@@H]1CN(C2CCS(=O)(=O)CC2)C[C@H]1NC(=O)c1cc(C2CC2)on1 (racemic) [compound 225, (±)-trans-5-cyclopropyl-N-[1-(1,1-dioxo-1??- thian-4-yl)-4-methyl-pyrrolidin-3-yl]-1,2-oxazole-3-carboxamide] |
| > 50 | CC(C)c1cc(C(=O)N[C@H]2C[C@@H](CNC(=O)c3ccccc3)N(C3CC3)C2)no1 (racemic) [compound 227, (±)-cis-N-[1-cyclo-propyl-5-[(phenyl-formamido)methyl]pyrrolidin-3-yl]-5-(propan-2-yl)-1,2-oxazole-3-carboxamide] |
| 3.63 | COc1ccc(CN2C[C@H](C)[C@H](NC(=O)c3cc(C4CC4)on3)C2)cc1 (racemic) [compound 228, (±)-cis-5-cyclopropyl-N-[1-[(4-methoxy-phenyl)methyl]-4-methylpyrrolidin-3-yl]-1,2-oxazole-3-carboxamide] |
| 3.32 | C[C@H]1CN(Cc2ccc(N3CCCC3)cc2)C[C@H]1NC(=O)c1cc(C2CC2)on1 (racemic) [compound 229, (±)-cis-5-cyclopropyl-N-[4-methyl-1-{[4-(pyrrolidin-1-yl)phenyl]methyl}pyrrolidin-3-yl]-1,2-oxazole-3-carboxamide] |
| 4.08 | C[C@H]1CN(Cc2ccc(N(C)C)cc2)C[C@H]1NC(=O)c1cc(C2CC2)on1 (racemic) [compound 230, (±)-cis-5-cyclopropyl-N-[1-{[4-(dimethyl-amino)phenyl]methyl}-4-methylpyrrolidin-3-yl]-1,2-oxazole-3-carboxamide] |
| > 50 | C[C@H]1CN(Cc2c(Br)cncc2Br)C[C@H]1NC(=O)c1cc(C2CC2)on1 (racemic) [compound 231, (±)-cis-5-cyclopropyl-N-[1-[(3,5-dibromo-pyridin-4-yl)methyl]-4-methylpyrrolidin-3-yl]-1,2-oxazole-3-carboxamide] |
| 36.1 | C[C@H]1CN(Cc2cc(Cl)cnc2Cl)C[C@H]1NC(=O)c1cc(C2CC2)on1 (racemic) [compound 232, (±)-cis-5-cyclopropyl-N-[1-[(2,5-dichloro-pyridin-3-yl)methyl]-4-methylpyrrolidin-3-yl]-1,2-oxazole-3-carboxamide] |
| 2.27 | COc1cccc(CN2C[C@H](C)[C@H](NC(=O)c3cc(C4CC4)on3)C2)c1OC (racemic) [compound 233, (±)-cis-5-cyclopropyl-N-[1-[(2,3-dimethoxy-phenyl)methyl]-4-methylpyrrolidin-3-yl]-1,2-oxazole-3-carboxamide] |
